According to patent US7495104B2, “Quinoline or quinazoline derivatives inhibiting auto-phosphorylation of fibroblast growth factor receptors” (Kirin Beer Kabushiki Kaisha, priority 2001, dated 2009):
Structures can show the parent of a compound that is named as a salt.

Experiments:
[1] = tested on: Human gastric cancer cells (OCUM-2MD3); assay: Tumor growth inhibitory activity against human gastric cancer cells (OCUM-2MD3) in nude mice (Pharmacological Test Example 2); type: in vivo; settings: unit dose 10 mg/kg, oral, twice a day for 5 days
Protocol: (§1) Human gastric cancer cells (OCUM-2MD3) (kindly provided by Dr. Kosei Hirakawa, Osaka City University) were transplanted into nude mice. […] The test compound suspended in 0.5% methylcellulose was orally administered every day twice a day for 5 days (except for the first day on which the suspension was administered once a day).
(§2) Only 0.5% methylcellulose was administered to the control group in the manner as in the test groups. The tumor growth inhibition rate (TGIR) was calculated as follows: The tumor growth inhibition rate (TGIR)=(1−TX/CX)×100 wherein CX represents the volume of tumor at day X for the control group when the tumor volume at the day of the start of the administration was presumed to be 1; and TX represents the volume of tumor for test compound administration groups.

[2] = tested on: Human gastric cancer cells (OCUM-2MD3); assay: Tumor growth inhibitory activity against human gastric cancer cells (OCUM-2MD3) in nude mice (Pharmacological Test Example 3); type: in vivo; settings: Mus musculus, read-out: TGIR (tumor growth inhibition rate); for inhibition in vivo at 10 mg: 240 h, dose per day 10 mg × 2, oral; for inhibition in vivo at 25 mg: 600 h, dose per day 25 mg × 1, oral
Protocol: as §1, §2
Tumor growth inhibitory activity was measured in the same manner as in Pharmacological Test Example 2, except that oral administration was carried out once a day or twice a day (except for the first day on which the suspension was administered once a day).

Bek = Bek (Homo sapiens, UniProt P21802); assay: Inhibitory activity against Bek-autophosphorylation using ELISA method in OCUM-2MD3 cells; type: cell-based; settings: 1 hr with compound, read-out: IC50 (concentration necessary for inhibiting 50% of Bek-phosphorylation)
Bek, sequence (P21802 431-767 limits assumed): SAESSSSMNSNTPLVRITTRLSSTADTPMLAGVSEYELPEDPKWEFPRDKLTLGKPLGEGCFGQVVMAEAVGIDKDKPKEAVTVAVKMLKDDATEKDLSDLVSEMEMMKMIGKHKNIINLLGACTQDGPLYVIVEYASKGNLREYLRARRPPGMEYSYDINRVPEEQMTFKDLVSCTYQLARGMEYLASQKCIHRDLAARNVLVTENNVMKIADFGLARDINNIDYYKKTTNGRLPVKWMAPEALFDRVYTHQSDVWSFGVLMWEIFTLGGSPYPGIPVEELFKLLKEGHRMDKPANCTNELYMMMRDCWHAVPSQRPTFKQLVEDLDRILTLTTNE
Summary of the method: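 OCUM-2MD3 human scirrhous gastric cancer cells in 0.1% FCS were exposed to compound for 1 hr at 37° C, then lysed. Phospho-tyrosine proteins were captured with anti-phosphotyrosine antibody, probed with anti-Bek antibody and peroxidase read-out (A450). Positive control (1000 nM) set 0%, untreated 100%; IC50 from multi-level dilutions.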

SMILES | inhibition in vivo at 10 mg [2] [%] | IC50 (Bek) [nM] | other results
COc1cc2c(Oc3ccc(Nc4ccc(C(C)(C)C)cc4)cc3)ccnc2cc1OCCN1CCOCC1 [Compound 37 (hydrochloride)] |  |  | TGIR (tumor growth inhibition rate) [1]: 35%
COc1cc2c(Oc3ccc(Nc4ccc(C(C)(C)C)cc4)cc3)ccnc2cc1OCC(O)CN1CCOCC1 (stereo not shown) [Compound 59 (hydrochloride)] |  |  | TGIR (tumor growth inhibition rate) [1]: 16%
COc1cc2c(Oc3ccc(Nc4ccc(C(C)(C)C)cc4)cc3)ccnc2cc1OCC[N+]1([O-])CCOCC1 [Compound 83, 4-{2-[(4-{4-[4-(Tert-butyl)anilino]phenoxy}-6-methoxy-7-quinolyl)-oxy]ethyl}-1,4-oxazinan-4-ium-4-oleate] | 34 |  | 
COc1cc2c(Oc3ccc(Nc4ccc(C(C)(C)C)cc4)cc3Cl)ccnc2cc1OCCN1CCOCC1 [Compound 84, N-[4-(Tert-butyl)phenyl]-N-(3-chloro-4-{[6-methoxy-7-(2-morpholinoethoxy)-4-quinolyl]oxy}phenyl)amine] | 33 |  | 
COc1cc2c(Oc3ccc(Nc4ccc(C(C)(C)C)cc4)cc3)ccnc2cc1OCCNCCO [Compound 85, 2-({2-[(4-{4-[4-(Tert-butyl)anilino]phenoxy}-6-methoxy-7-quinolyl)oxy]ethyl}amino)-1-ethanol] | 43 |  | 
COc1cc2nccc(Oc3ccc(Nc4ccc(C(C)(C)C)cc4)cc3)c2cc1OCC(O)CN1CCOCC1 (stereo not shown) [Compound 86, 1-[(4-{4-[4-(Tert-butyl)anilino]phenoxy}-7-methoxy-6-quinolyl)-oxy]-3-morpholino-2-propanol] | 30 |  | 
COc1cc2c(Oc3ccc(NC(=O)NCCC(C)(C)C)c(F)c3)ccnc2cc1OCCN1CCOCC1 [Compound 87, 1-(3,3-Dimethyl-butyl)-3-{2-fluoro-4-[6-methoxy-7-(2-morpholin-4-yl-ethoxy)-quinolin-4-yloxy]-phenyl}-urea] | 33 | < 10 | inhibition in vivo at 25 mg [2]: 54%
COc1cc2c(Oc3ccc(NC(=O)NCCC(C)(C)C)c(F)c3)ccnc2cc1OCCCN1CCOCC1 [Compound 88, 1-(3,3-Dimethyl-butyl)-3-{2-fluoro-4-[6-methoxy-7-(3-morpholin-4-yl-propoxy)-quinolin-4-yloxy]-phenyl}-urea hydrochloride] | 35 | 10.8 | 
COc1cc2c(Oc3ccc(NC(=O)NCCC(C)(C)C)c(F)c3)ccnc2cc1OCC(O)CN1CCOCC1 (stereo not shown) [Compound 89, 1-(3,3-Dimethyl-butyl)-3-{2-fluoro-4-[7-(2-hydroxy-3-morpholin-4-yl-propoxy)-6-methoxy-quinolin-4-yloxy]-phenyl}-urea hydrochloride] | 29 | < 10 | 
COc1cc2nccc(Oc3ccc(NC(=O)NCCC(C)(C)C)cc3)c2cc1OCCN1CCOCC1 [Compound 90, 1-(3,3-Dimethyl-butyl)-3-{4-[7-methoxy-6-(2-morpholin-4-yl-ethoxy)-quinolin-4-yloxy]-phenyl}-urea] | 36 | 12.6 | 
COc1cc2c(Oc3ccc(NC(=O)NCCC(C)(C)C)cc3)ccnc2cc1OCCN1CCCCC1 [Compound 91, 1-(3,3-Dimethyl-butyl)-3-{4-[6-methoxy-7-(2-piperidin-1-yl-ethoxy)-quinolin-4-yloxy]-phenyl}-urea hydrochloride] |  | 18.4 | inhibition in vivo at 25 mg [2]: 28%
COc1cc2c(Oc3ccc(NC(=O)NCCC(C)(C)C)cc3)ccnc2cc1OCCCN1CCC(CO)CC1 [Compound 94, 1-(3,3-Dimethyl-butyl)-3-(4-{7-[3-(4-hydroxymethyl-piperidin-1-yl)-propoxy]-6-methoxy-quinolin-4-yloxy}-phenyl)-urea] | 40 |  | 
COc1cc2c(Oc3ccc(NC(=O)NCCC(C)(C)C)c(F)c3)ccnc2cc1OCCN1CC(C)OC(C)C1 (stereo not shown) [Compound 97, 1-(3,3-Dimethyl-butyl)-3-(4-{7-[2-(2,6-dimethyl-morpholin-4-yl)-ethoxy]-6-methoxy-quinolin-4-yloxy}-2-fluoro-phenyl)-urea] |  | < 10 | inhibition in vivo at 25 mg [2]: 48%
COc1cc2c(Oc3ccc(NC(=O)NCCC(C)(C)C)cc3F)ccnc2cc1OCCN1CCOCC1 [Compound 98, 1-(3,3-Dimethyl-butyl)-3-{3-fluoro-4-[6-methoxy-7-(2-morpholin-4-yl-ethoxy)-quinolin-4-yloxy]-phenyl}-urea] |  | < 10 | inhibition in vivo at 25 mg [2]: 48%
COc1cc2c(Oc3ccc(NC(=O)NCCC(C)(C)C)c(F)c3)ccnc2cc1OCCN1CCCCC1 [Compound 99, 1-(3,3-Dimethyl-butyl)-3-{2-fluoro-4-[6-methoxy-7-(2-piperidin-1-yl-ethoxy)-quinolin-4-yloxy]-phenyl}-urea] |  | 28.6 | inhibition in vivo at 25 mg [2]: 63%
COc1cc2c(Oc3ccc(NC(=O)NCCC(C)(C)C)c(Cl)c3)ccnc2cc1OCCN1CCCCC1 [Compound 100, 1-{2-Chloro-4-[6-methoxy-7-(2-piperidin-1-yl-ethoxy)-quinolin-4-yloxy]-phenyl}-3-(3,3-dimethyl-butyl)-urea] |  | 175 | inhibition in vivo at 25 mg [2]: 43%
COc1cc2c(Oc3ccc(NC(=O)NCCC(C)(C)C)c(Cl)c3)ccnc2cc1OCCN1CCOCC1 [Compound 114, 1-{2-Chloro-4-[6-methoxy-7-(2-morpholin-4-yl-ethoxy)-quinolin-4-yloxy]-phenyl}-3-(3,3-dimethyl-butyl)-urea] |  | 20.1 | inhibition in vivo at 30 mg ([2]; 720 h, dose per day 30 mg × 2, oral): 48%
COc1cc2c(Oc3ccc(Nc4ccc(C(C)(C)C)cc4)cc3)ccnc2cc1OCCN(CCO)C(C)C [Compound 367, 2-[(2-{4-[4-(4-Tert-butyl-phenylamino)-phenoxy]-6-methoxy-quinolin-7-yloxy}-ethyl)-isopropyl-amino]-ethanol] |  | 468 | 
COc1cc2c(Oc3ccc(NC(=O)NCCC(C)(C)C)cc3)ccnc2cc1OCCN(CCO)Cc1ccccc1 [Compound 368, 1-[4-(7-{2-[Benzyl-(2-hydroxy-ethyl)-amino]-ethoxy}-6-methoxy-quinolin-4-yloxy)-phenyl]-3-(3,3-dimethyl-butyl)-urea] |  | 157 | 
CCCN(CCO)CCOc1cc2nccc(Oc3ccc(NC(=O)NCCC(C)(C)C)cc3)c2cc1OC [Compound 369, 1-(3,3-Dimethyl-butyl)-3-[4-(7-{2-[(2-hydroxy-ethyl)-propyl-amino]-ethoxy}-6-methoxy-quinolin-4-yloxy)-phenyl]-urea] |  | 42.3 | 
COc1cc2c(Oc3ccc(NC(=O)NCCC(C)(C)C)cc3)ccnc2cc1OCCN(CCO)C(C)C [Compound 370, 1-(3,3-Dimethyl-butyl)-3-[4-(7-{2-[(2-hydroxy-ethyl)-isopropyl-amino]-ethoxy}-6-methoxy-quinolin-4-yloxy)-phenyl]-urea] |  | 130 | 
COc1cc2c(Oc3ccc(NC(=O)NCCC(C)(C)C)cc3)ccnc2cc1OCCN1CCC(CO)CC1 [Compound 371, 1-(3,3-Dimethyl-butyl)-3-(4-{7-[2-(4-hydroxymethyl-piperidin-1-yl)-ethoxy]-6-methoxy-quinolin-4-yloxy}-phenyl)-urea] |  | < 10 | 
COc1cc2c(Oc3ccc(NC(=O)NCCC(C)(C)C)cc3)ccnc2cc1OCCNCCO [Compound 372, 1-(3,3-Dimethyl-butyl)-3-(4-{7-[2-(2-hydroxy-ethylamino)-ethoxy]-6-methoxy-quinolin-4-yloxy}-phenyl)-urea] |  | < 10 | 
COc1cc2c(Oc3ccc(NC(=O)NCCC(C)(C)C)cc3)ccnc2cc1OCCN1CCC(O)CC1 [Compound 373, 1-(3,3-Dimethyl-butyl)-3-(4-{7-[2-(4-hydroxy-piperidin-1-yl)-ethoxy]-6-methoxy-quinolin-4-yloxy}-phenyl)-urea] |  | < 10 | 
COc1cc2nccc(Oc3ccc(NC(=O)NCCC(C)(C)C)cc3Cl)c2cc1OC [Compound 374, 1-[3-Chloro-4-(6,7-dimethoxy-quinolin-4-yloxy)-phenyl]-3-(3,3-dimethyl-butyl)-urea] |  | 32.8 | 
COc1cc2c(Oc3ccc(NC(=O)NCCC(C)(C)C)cc3)ccnc2cc1OCC(=O)N1CCOCC1 [Compound 375, 1-(3,3-Dimethyl-butyl)-3-{4-[6-methoxy-7-(2-morpholin-4-yl-2-oxo-ethoxy)-quinolin-4-yloxy]-phenyl}-urea] |  | 28 | 
